Measured values: US10988477B2 (Merck Patent GmbH, priority 2018, dated 2021)
pIC50, pKi: −log10 of the molar value.

Assays:
GCN2 kinase = GCN2 kinase (Homo sapiens, UniProt Q9P2K8); experiment: GCN2 enzyme inhibition assay (Transcreener ADP2 fluorescence polarization); assay type: biochemical; conditions: Enzyme activity for compounds of Formula IV; Ki(app), 280 μM ATP, 25° C.
How it was run: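 Kinase activity is followed as ADP formation, measured by fluorescence polarization, using 4 nM enzyme with 280 μM ATP and 200 μM (RS)7 peptide at pH 7.5 and 25 °C for 1 h. Values come from a non-linear tight-binding fit.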

[1] = biological target: intracellular GCN2 (phosphorylation of the GCN2 substrate eIF2α) (Homo sapiens, UniProt Q9P2K8); experiment: GCN2 cellular inhibition assay (AlphaScreen SureFire P-eIF2α Ser51, borrelidin-treated U2OS cells); assay type: cell-based; conditions: compounds of Formula IV; biomarker assay, phosphorylated eIF2α Ser51 in borrelidin-treated U2OS cells
How it was run: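 Borrelidin at 10 μM is added to U2OS cells immediately after compound (4-fold dilution series, 40 μM top final) for 1 h at 37 °C. Phosphorylated eIF2α Ser51 in lysates is quantified by AlphaScreen and expressed as percent inhibition against borrelidin-stimulated controls.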

Chain of intracellular GCN2 (phosphorylation of the GCN2 substrate eIF2α) (Q9P2K8 whole entry): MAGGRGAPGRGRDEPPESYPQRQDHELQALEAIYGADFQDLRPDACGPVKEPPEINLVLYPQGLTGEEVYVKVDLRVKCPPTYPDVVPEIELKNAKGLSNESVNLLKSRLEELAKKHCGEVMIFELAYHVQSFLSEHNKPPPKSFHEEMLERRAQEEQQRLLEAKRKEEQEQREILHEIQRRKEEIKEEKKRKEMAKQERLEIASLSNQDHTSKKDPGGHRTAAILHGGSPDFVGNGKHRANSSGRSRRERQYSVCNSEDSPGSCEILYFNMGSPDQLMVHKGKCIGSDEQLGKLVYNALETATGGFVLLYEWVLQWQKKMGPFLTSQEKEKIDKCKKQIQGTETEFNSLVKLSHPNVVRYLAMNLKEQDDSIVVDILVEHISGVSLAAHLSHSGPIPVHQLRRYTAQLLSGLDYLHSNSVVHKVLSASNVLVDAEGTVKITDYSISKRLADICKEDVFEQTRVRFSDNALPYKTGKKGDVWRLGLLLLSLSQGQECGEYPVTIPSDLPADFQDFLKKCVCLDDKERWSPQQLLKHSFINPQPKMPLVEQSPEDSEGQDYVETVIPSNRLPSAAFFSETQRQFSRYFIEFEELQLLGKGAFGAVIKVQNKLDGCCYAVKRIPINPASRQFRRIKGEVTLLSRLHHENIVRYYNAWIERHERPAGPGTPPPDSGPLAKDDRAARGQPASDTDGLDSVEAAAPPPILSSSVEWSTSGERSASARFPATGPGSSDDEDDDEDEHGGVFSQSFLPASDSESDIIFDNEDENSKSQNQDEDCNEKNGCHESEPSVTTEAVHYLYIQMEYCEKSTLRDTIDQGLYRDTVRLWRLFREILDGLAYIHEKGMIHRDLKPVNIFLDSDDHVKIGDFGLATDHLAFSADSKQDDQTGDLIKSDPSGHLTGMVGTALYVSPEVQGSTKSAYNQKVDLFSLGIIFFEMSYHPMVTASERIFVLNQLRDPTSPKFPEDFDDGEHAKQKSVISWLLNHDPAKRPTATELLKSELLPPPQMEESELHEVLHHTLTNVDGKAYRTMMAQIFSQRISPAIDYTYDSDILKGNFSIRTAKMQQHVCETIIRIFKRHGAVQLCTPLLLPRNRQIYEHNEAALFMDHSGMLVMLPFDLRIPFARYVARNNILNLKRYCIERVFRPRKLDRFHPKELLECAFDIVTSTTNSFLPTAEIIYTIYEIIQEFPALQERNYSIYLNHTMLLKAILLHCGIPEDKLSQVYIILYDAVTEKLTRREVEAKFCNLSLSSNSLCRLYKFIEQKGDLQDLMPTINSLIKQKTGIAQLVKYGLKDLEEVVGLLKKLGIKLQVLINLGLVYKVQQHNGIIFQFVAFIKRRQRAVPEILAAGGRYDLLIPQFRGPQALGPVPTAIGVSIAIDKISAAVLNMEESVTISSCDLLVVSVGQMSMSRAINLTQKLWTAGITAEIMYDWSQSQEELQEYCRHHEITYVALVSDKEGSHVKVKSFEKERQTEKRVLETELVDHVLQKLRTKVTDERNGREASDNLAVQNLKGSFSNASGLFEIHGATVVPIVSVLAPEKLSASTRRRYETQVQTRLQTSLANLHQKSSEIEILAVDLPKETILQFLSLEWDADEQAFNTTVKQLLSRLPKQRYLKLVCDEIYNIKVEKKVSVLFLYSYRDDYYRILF
Chain of GCN2 kinase (Q9P2K8 whole entry): as above

SMILES	pKi (GCN2 kinase)	pIC50 [1]
Cc1n[nH]cc1C1CCCN(c2ccnc(-c3cnc4cnc(C(F)F)cn34)n2)C1 (single isomer, unassigned) [IV-469, 6-(Difluoromethyl)-3-(4-(3-(3-methyl-1H-pyrazol-4-yl)piperidin-1-yl)pyrimidin-2-yl)imidazo[1,2-a]pyrazine]	7.00 to 8.00	< 5.30
Cc1[nH]ncc1C1CCCN(c2ccnc(-c3cnc4cnc(C(F)(F)F)cn34)n2)C1 (single isomer, unassigned) [IV-470, 3-(4-(3-(5-Methyl-1H-pyrazol-4-yl)piperidin-1-yl)pyrimidin-2-yl)-6-(trifluoromethyl)imidazo[1,2-a]pyrazine]	> 8.00	< 5.30
CC1CN(c2ccnc(-c3cnc4cnc(C(F)(F)F)cn34)n2)CC(c2cn[nH]c2C(F)(F)F)N1 (single isomer, unassigned) [IV-474, 3-(4-(3-Methyl-5-(5-(trifluoromethyl)-1H-pyrazol-4-yl)piperazin-1-yl)pyrimidin-2-yl)-6-(trifluoromethyl)imidazo[1,2-a]pyrazine]	> 8.00	> 6.30
Fc1n[nH]cc1C1CCCN(c2ccnc(-c3cnc4cnc(C(F)(F)F)cn34)n2)C1 (single isomer, unassigned) [IV-491, 3-(4-(3-(3-Fluoro-1H-pyrazol-4-yl)piperidin-1-yl)pyrimidin-2-yl)-6-(trifluoromethyl)imidazo[1,2-a]pyrazine]	> 8.00	> 6.30
CC1C(C(N)=O)CCCN1c1ccnc(-c2cnc3cnc(C(F)(F)F)cn23)n1 (single isomer, unassigned) [IV-499, 2-Methyl-1-(2-(6-(trifluoromethyl)imidazo[1,2-a]pyrazin-3-yl)pyrimidin-4-yl)piperidine-3-carboxamide]	> 8.00	5.30 to 6.30
CC1CC(C(N)=O)C(C)N(c2ccnc(-c3cnc4cnc(C(F)(F)F)cn34)n2)C1 (single isomer, unassigned) [IV-501, 2,5-Dimethyl-1-(2-(6-(trifluoromethyl)imidazo[1,2-a]pyrazin-3-yl)pyrimidin-4-yl)piperidine-3-carboxamide]	> 8.00	5.30 to 6.30
CC1CN(c2ccnc(-c3cnc4cnc(C(F)(F)F)cn34)n2)C(C)C(c2cnc[nH]2)N1 (single isomer, unassigned) [IV-538, 3-(4-(3-(1H-Imidazol-5-yl)-2,5-dimethylpiperazin-1-yl)pyrimidin-2-yl)-6-(trifluoromethyl)imidazo[1,2-a]pyrazine]	> 8.00	5.30 to 6.30
FC(F)(F)c1cn2c(-c3nccc(N4CCCC(c5cn[nH]c5)C4)n3)cnc2cn1 (single isomer, unassigned) [IV-545, 3-(4-(3-(1H-Pyrazol-4-yl)piperidin-1-yl)pyrimidin-2-yl)-6-(trifluoromethyl)imidazo[1,2-a]pyrazine]	> 8.00	5.30 to 6.30
Fc1n[nH]cc1C1CCN(c2ccnc(-c3cnc4cnc(C(F)(F)F)cn34)n2)C1 (single isomer, unassigned) [IV-562, 3-(4-(3-(3-Fluoro-1H-pyrazol-4-yl)pyrrolidin-1-yl)pyrimidin-2-yl)-6-(trifluoromethyl)imidazo[1,2-a]pyrazine]	> 8.00	> 6.30
CP(C)(=O)C1CC(c2cn[nH]c2)CN(c2ccnc(-c3cnc4cnc(C(F)(F)F)cn34)n2)C1 (single isomer, unassigned) [IV-592, (5-(1H-Pyrazol-4-yl)-1-(2-(6-(trifluoromethyl)imidazo[1,2-a]pyrazin-3-yl)pyrimidin-4-yl)piperidin-3-yl)dimethylphosphine oxide]	> 8.00	< 5.30
CC1C(C(N)=O)CCN1c1ccnc(-c2cnc3cnc(C(F)(F)F)cn23)n1 (single isomer, unassigned) [IV-614, 2-Methyl-1-(2-(6-(trifluoromethyl)imidazo[1,2-a]pyrazin-3-yl)pyrimidin-4-yl)pyrrolidine-3-carboxamide]	6.00 to 7.00	< 5.30
CC1C(C(N)=O)CCN1c1ccnc(-c2cnc3cnc(C(F)(F)F)cn23)n1 (single isomer, unassigned) [IV-615, 2-Methyl-1-(2-(6-(trifluoromethyl)imidazo[1,2-a]pyrazin-3-yl)pyrimidin-4-yl)pyrrolidine-3-carboxamide]	7.00 to 8.00	5.30 to 6.30
OC1CCN(c2ccnc(-c3cnc4cnc(C(F)(F)F)cn34)n2)CC1c1cn[nH]c1 (single isomer, unassigned) [IV-621, 3-(1H-Pyrazol-4-yl)-1-(2-(6-(trifluoromethyl)imidazo[1,2-a]pyrazin-3-yl)pyrimidin-4-yl)piperidin-4-ol]	> 8.00	5.30 to 6.30
OC1CCN(c2ccnc(-c3cnc4cnc(C(F)(F)F)cn34)n2)CC1c1cn[nH]c1 (single isomer, unassigned) [IV-622, 3-(1H-Pyrazol-4-yl)-1-(2-(6-(trifluoromethyl)imidazo[1,2-a]pyrazin-3-yl)pyrimidin-4-yl)piperidin-4-ol]	> 8.00	5.30 to 6.30
OC1CCN(c2ccnc(-c3cnc4cnc(C(F)(F)F)cn34)n2)CC1c1cn[nH]c1 (single isomer, unassigned) [IV-623, 3-(1H-Pyrazol-4-yl)-1-(2-(6-(trifluoromethyl)imidazo[1,2-a]pyrazin-3-yl)pyrimidin-4-yl)piperidin-4-ol]	> 8.00	> 6.30
FC(F)(F)c1cn2c(-c3nccc(N4CCC(c5c[nH]nc5C(F)(F)F)C4)n3)cnc2cn1 (single isomer, unassigned) [IV-628, 6-(Trifluoromethyl)-3-(4-(3-(3-(trifluoromethyl)-1H-pyrazol-4-yl)pyrrolidin-1-yl)pyrimidin-2-yl)imidazo[1,2-a]pyrazine]	7.00 to 8.00	5.30 to 6.30
CP(C)(=O)C1CC(c2cn[nH]c2)CN(c2ccnc(-c3cnc4cnc(C(F)(F)F)cn34)n2)C1 (single isomer, unassigned) [IV-633, (5-(1H-Pyrazol-4-yl)-1-(2-(6-(trifluoromethyl)imidazo[1,2-a]pyrazin-3-yl)pyrimidin-4-yl)piperidin-3-yl)dimethylphosphine oxide]	7.00 to 8.00	< 5.30

Continued, values first:

pKi (GCN2 kinase)	pIC50 [1]	SMILES
7.00 to 8.00	< 5.30	Cc1[nH]ncc1C1CCCN(c2ccnc(-c3cnc4cnc(C(F)(F)F)cn34)n2)C1 (single isomer, unassigned) [IV-471, 3-(4-(3-(5-Methyl-1H-pyrazol-4-yl)piperidin-1-yl)pyrimidin-2-yl)-6-(trifluoromethyl)imidazo[1,2-a]pyrazine]
> 8.00	> 6.30	Fc1n[nH]cc1C1CCCN(c2ccnc(-c3cnc4cnc(C(F)(F)F)cn34)n2)C1 (single isomer, unassigned) [IV-492, 3-(4-(3-(3-Fluoro-1H-pyrazol-4-yl)piperidin-1-yl)pyrimidin-2-yl)-6-(trifluoromethyl)imidazo[1,2-a]pyrazine]
> 8.00	5.30 to 6.30	FC(F)(F)c1cn2c(-c3nccc(N4CCC(c5cn[nH]c5)C4)n3)cnc2cn1 (single isomer, unassigned) [IV-540, 3-(4-(3-(1H-Pyrazol-4-yl)pyrrolidin-1-yl)pyrimidin-2-yl)-6-(trifluoromethyl)imidazo[1,2-a]pyrazine]
> 8.00	> 6.30	FC(F)(F)c1cn2c(-c3nccc(N4CCCC(c5cn[nH]c5)C4)n3)cnc2cn1 (single isomer, unassigned) [IV-546, 3-(4-(3-(1H-Pyrazol-4-yl)piperidin-1-yl)pyrimidin-2-yl)-6-(trifluoromethyl)imidazo[1,2-a]pyrazine]
> 8.00	5.30 to 6.30	Fc1n[nH]cc1C1CCN(c2ccnc(-c3cnc4cnc(C(F)(F)F)cn34)n2)C1 (single isomer, unassigned) [IV-563, 3-(4-(3-(3-Fluoro-1H-pyrazol-4-yl)pyrrolidin-1-yl)pyrimidin-2-yl)-6-(trifluoromethyl)imidazo[1,2-a]pyrazine]
7.00 to 8.00	5.30 to 6.30	OC1CCN(c2ccnc(-c3cnc4cnc(C(F)(F)F)cn34)n2)CC1c1cn[nH]c1 (single isomer, unassigned) [IV-624, 3-(1H-Pyrazol-4-yl)-1-(2-(6-(trifluoromethyl)imidazo[1,2-a]pyrazin-3-yl)pyrimidin-4-yl)piperidin-4-ol]
> 8.00	5.30 to 6.30	FC(F)(F)c1cn2c(-c3nccc(N4CCC(c5c[nH]nc5C(F)(F)F)C4)n3)cnc2cn1 (single isomer, unassigned) [IV-629, 6-(Trifluoromethyl)-3-(4-(3-(3-(trifluoromethyl)-1H-pyrazol-4-yl)pyrrolidin-1-yl)pyrimidin-2-yl)imidazo[1,2-a]pyrazine]
7.00 to 8.00	< 5.30	CP(C)(=O)C1CC(c2cn[nH]c2)CN(c2ccnc(-c3cnc4cnc(C(F)(F)F)cn34)n2)C1 (single isomer, unassigned) [IV-632, (5-(1H-Pyrazol-4-yl)-1-(2-(6-(trifluoromethyl)imidazo[1,2-a]pyrazin-3-yl)pyrimidin-4-yl)piperidin-3-yl)dimethylphosphine oxide]
> 8.00	5.30 to 6.30	CC1C(c2cn[nH]c2)N(CCO)C(C)CN1c1ccnc(-c2cnc3cnc(C(F)(F)F)cn23)n1 (single isomer, unassigned) [IV-636, 2-(3,6-Dimethyl-2-(1H-pyrazol-4-yl)-4-(2-(6-(trifluoromethyl)imidazo[1,2-a]pyrazin-3-yl)pyrimidin-4-yl)piperazin-1-yl)ethan-1-ol]
6.00 to 7.00	< 5.30	CC1CN(c2ccnc(-c3cnc4cnc(C(F)(F)F)cn34)n2)C(C)C(c2c[nH]cn2)O1 (single isomer, unassigned) [IV-638, 2-(1H-Imidazol-4-yl)-3,6-dimethyl-4-(2-(6-(trifluoromethyl)imidazo[1,2-a]pyrazin-3-yl)pyrimidin-4-yl)morpholine]
